pIC50: −log10 of the molar value. The source made the active and inactive calls. How the calls were made is not given here.
Target: Melanin-concentrating hormone receptor 1 (Homo sapiens) (UniProt Q99705)
Test: MCH receptor 1 blockade in cells – cell-based, fluorescence, dose response, set 3, selectivity assay for GPR7 antagonist project, late-stage follow-up (AID 540371)
Details: MCHR1-expressing cells

Row | pIC50 (run 1) | IC50 (run 2) | IC50 (run 3) | IC50 (run 1) | pIC50 (run 2) | pIC50 (run 3) | Structure (SMILES)
1 | 5.21 | inactive | inactive |  |  |  | CCOc1ccc(Oc2c(S(C)=O)cnn(Cc3cccc4ccccc34)c2=O)cc1 (stereo not drawn)
2 |  | > 20 µM (inactive) | > 20 µM (inactive) | inactive |  |  | CCCOc1ccc(Oc2c(Cl)cnn(Cc3cccc4ccccc34)c2=O)cc1
3 | 5.29 |  |  |  | 5.30 | 5.25 | COc1ccc(Oc2c(Cl)cnn(Cc3cccc4cnccc34)c2=O)cc1
4 | 6.01 |  |  |  | 5.77 | 5.79 | COc1ccc(Oc2c(Cl)cnn(Cc3cccc4ccccc34)c2=O)cc1
5 | 5.68 |  |  |  | 5.65 | 5.65 | COc1ccc(Oc2c(C#N)cnn(Cc3cccc4ccccc34)c2=O)cc1
6 |  | inactive | inactive | inactive |  |  | COc1ccc(Sc2c(Cl)cnn(Cc3cccc4ccccc34)c2=O)cc1
7 | 5.71 |  |  |  | 5.76 | 5.68 | CCc1ccc(Oc2c(Cl)cnn(Cc3cccc4ccccc34)c2=O)cc1
8 | 5.80 |  |  |  | 5.28 | 5.17 | CCOc1ccc(Oc2c(Cl)cnn(Cc3cccc4ccccc34)c2=O)cc1
9 | 6.05 |  |  |  | 5.67 | 5.78 | COc1ccc(Oc2c(Br)cnn(Cc3cccc4ccccc34)c2=O)cc1
10 |  | inactive | > 20 µM (inactive) | inactive |  |  | COc1ccc(Nc2c(Cl)cnn(Cc3cccc4ccccc34)c2=O)cc1

The next lines start with the compound.

Row | Structure (SMILES) | pIC50 (run 1) | IC50 (run 2) | IC50 (run 3) | IC50 (run 1) | pIC50 (run 2) | pIC50 (run 3)
11 | CCOC(=O)C(c1cccc2ccccc12)n1ncc(Cl)c(Oc2ccc(OC)cc2)c1=O (stereo not drawn) |  | > 20 µM (inactive) | > 20 µM (inactive) | > 20 µM (inactive) |  | 
12 | COc1ccc(Oc2c(Cl)cnn(CC(=O)C(c3ccccc3)c3ccccc3)c2=O)cc1 | 5.53 |  |  |  | 5.54 | 5.26
13 | C=Cc1nn(Cc2ccccc2C)c(=O)c(Oc2ccc(OC)cc2)c1C=C | 5.84 |  |  |  | 5.88 | 5.84
14 | COc1ccc(Oc2c(Cl)cnn(C(c3ccccc3)c3ccccc3)c2=O)cc1 |  | > 20 µM (inactive) |  | inactive |  | 5.14
15 | CCOc1ccc(Oc2c(Cl)c(Br)nn(Cc3cccc4ccccc34)c2=O)cc1 | 5.62 |  | inactive |  | 5.22 | 
16 | COc1ccc(Oc2c(Cl)cnn(Cc3ccccc3C(F)(F)F)c2=O)cc1 | 5.35 |  |  |  | 5.34 | 5.48
17 | CCCOc1ccc(Oc2c(Cl)cnn(C3c4ccccc4-c4ccccc43)c2=O)cc1 |  | > 20 µM (inactive) | > 20 µM (inactive) | > 20 µM (inactive) |  | 
18 | CCOC(=O)C(c1ccccc1)n1ncc(Cl)c(Oc2ccc(OC)cc2)c1=O (stereo not drawn) | 5.07 | inactive |  |  |  | 5.09
19 | COc1ccc(Oc2c(Cl)cnn(C3c4ccccc4-c4ccccc43)c2=O)cc1 |  | > 20 µM (inactive) | > 20 µM (inactive) | > 20 µM (inactive) |  | 
20 | COc1ccc(Oc2c(Cl)cnn(Cc3c(C)ccc4ccccc34)c2=O)cc1 | 6.11 |  |  |  | 6.09 | 6.08
21 | O=c1c(Oc2ccc3c(c2)CCO3)c(Cl)cnn1Cc1cccc2ccccc12 | 5.13 | > 20 µM (inactive) | > 20 µM (inactive) |  |  | 
22 | CCOc1ccc(Oc2c(Cl)cnn(C3c4ccccc4-c4ccccc43)c2=O)cc1 |  | > 20 µM (inactive) | > 20 µM (inactive) | > 20 µM (inactive) |  | 
23 | COc1ccc(Oc2c(Cl)c(C#N)nn(Cc3ccccc3C)c2=O)cc1 | 5.60 |  |  |  | 5.63 | 5.57
24 | COc1ccc(Oc2c(Cl)cnn(Cc3ccc4ccccc4c3)c2=O)cc1 | 5.40 | inactive | inactive |  |  | 
25 | COc1ccc(Oc2c(Cl)cnn(Cc3cc(C)cc(C)c3)c2=O)cc1 | 5.82 | inactive |  |  |  | 5.19
26 | COc1ccc(Oc2c(Cl)cnn(Cc3ccccc3-c3ccccc3)c2=O)cc1 | 5.95 |  |  |  | 5.65 | 5.34
27 | COc1ccc(Oc2c(Cl)cnn(Cc3c(F)cccc3F)c2=O)cc1 |  | inactive | inactive | inactive |  | 
28 | COc1ccc(Oc2c(Cl)cnn(Cc3ccccc3C)c2=O)cc1 | 5.51 |  |  |  | 5.11 | 5.25
29 | COc1ccc(Oc2c(Cl)cnn(Cc3ccccc3)c2=O)cc1 | 5.07 | inactive | inactive |  |  | 
30 | COc1ccc(Oc2c(Cl)cnn(C(C(=O)c3ccccc3)c3ccccc3)c2=O)cc1 (stereo not drawn) |  | > 20 µM (inactive) | > 20 µM (inactive) | inactive |  | 
31 | COc1ccc(Oc2c(Cl)cnn(Cc3c4ccccc4cc4ccccc34)c2=O)cc1 |  | > 20 µM (inactive) | inactive | > 20 µM (inactive) |  | 
